Laboratory results reported in ChEMBL document CHEMBL1130751, “Synthesis and 5 alpha-reductase inhibitory activity of 8-substituted benzo[f]quinolinones derived from palladium mediated coupling reactions” (Bioorg Med Chem Lett, 1998).

Legend:
[1] = target: T1, 3-oxo-5-alpha-steroid 4-dehydrogenase 2 (Homo sapiens, UniProt P31213); test: Inhibitory activity against Steroid 5-alpha-reductase type 2 as [3H]T to [3H]-DHT conversion human prostate nuclear membrane; format: tissue-based, Prostate gland
T1 sequence (P31213 whole entry): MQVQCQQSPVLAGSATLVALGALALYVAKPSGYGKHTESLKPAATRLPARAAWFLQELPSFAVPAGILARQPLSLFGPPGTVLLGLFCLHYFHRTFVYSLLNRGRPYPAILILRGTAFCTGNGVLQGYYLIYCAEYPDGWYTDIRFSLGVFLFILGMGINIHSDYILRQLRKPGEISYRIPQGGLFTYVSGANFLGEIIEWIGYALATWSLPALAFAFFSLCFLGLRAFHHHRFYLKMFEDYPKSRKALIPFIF

[2] = target: T2, 3-oxo-5-alpha-steroid 4-dehydrogenase 1 (Homo sapiens, UniProt P18405); test: Inhibitory activity against Steroid 5-alpha-reductase type 1 enzyme based on the conversion of [3H]T to [3H]-DHT in nuclear membrane preparations from human scalp; format: cell membranes
T2 sequence (P18405 whole entry): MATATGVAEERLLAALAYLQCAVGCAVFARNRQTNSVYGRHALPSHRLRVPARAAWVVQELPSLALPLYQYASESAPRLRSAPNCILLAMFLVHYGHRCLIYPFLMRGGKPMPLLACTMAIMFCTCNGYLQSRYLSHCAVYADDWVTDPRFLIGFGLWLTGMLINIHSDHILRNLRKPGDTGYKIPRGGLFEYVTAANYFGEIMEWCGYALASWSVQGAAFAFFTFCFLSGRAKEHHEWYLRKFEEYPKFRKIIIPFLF

[3] = target: T2, 3-oxo-5-alpha-steroid 4-dehydrogenase 1; test: Inhibitory activity against Steroid 5-alpha-reductase type I enzyme based on the conversion of [3H]-T to [3H]DHT in nuclear membrane preparations from human scalp; format: cell membranes

| Compound | IC50 [1] [nM] | IC50 [2] [nM] | IC50 [3] [nM] |
| --- | --- | --- | --- |
| CN1C(=O)CC[C@]2(C)c3ccc(/C=C/c4cncc5ccccc45)cc3CC[C@@H]12 | 1340 | 63 |  |
| CN1C(=O)CC[C@]2(C)c3ccc(-c4ccco4)cc3CC[C@@H]12 | > 10000 | 59 |  |
| CN1C(=O)CC[C@]2(C)c3ccc(C#Cc4ccccc4)cc3CC[C@@H]12 | 52 |  | 21 |
| CN1C(=O)CC[C@]2(C)c3ccc(CC(=O)NC(C)(C)C)cc3CC[C@@H]12 | > 10000 | > 10000 |  |
| CN1C(=O)CC[C@]2(C)c3ccc(/C=C\c4ccccc4)cc3CC[C@@H]12 | 1400 |  | 6 |
| CCN(CC)C(=O)Cc1ccc2c(c1)CC[C@H]1N(C)C(=O)CC[C@]21C | > 10000 | > 10000 |  |
| CN1C(=O)CC[C@]2(C)c3ccc(/C=C/c4cnc5ccccc5c4)cc3CC[C@@H]12 | 320 | 3.4 |  |
| CN1C(=O)CC[C@]2(C)c3ccc(CC(=O)Nc4ccccc4)cc3CC[C@@H]12 | 520 | > 10000 |  |
| CN1C(=O)CC[C@]2(C)c3ccc(/C=C/c4ccc5ccccc5n4)cc3CC[C@@H]12 | 550 | 32 |  |
| CN1C(=O)CC[C@]2(C)c3ccc(CC(N)=O)cc3CC[C@@H]12 | > 10000 | > 10000 |  |
| CN1C(=O)CC[C@]2(C)c3ccc(/C=C/c4ccccc4)cc3CC[C@@H]12 | 180 |  | 23 |
| CN1C(=O)CC[C@]2(C)c3ccc(CC(=O)O)cc3CC[C@@H]12 | 870 |  |  |
| CN1C(=O)CC[C@]2(C)c3ccc(-c4cccs4)cc3CC[C@@H]12 | > 10000 | > 10000 |  |
